Measurements as given in patent US20250114460A1, “NOVEL PLK1 DEGRADATION INDUCING COMPOUND” (UPPTHERA, INC., priority 2021, published 2025).

Target: T1, PLK1 (Homo sapiens, UniProt P53350)
T1 construct: endogenous in cells; host or cells: HeLa LgBit (Plk1-HiBit KI): HeLa stably expressing LgBit, with a CRISPR/Cas9 knock-in of HiBit at the endogenous PLK1 locus
Assay: Luciferase assay for PLK1 in HeLa LgBit (Plk1-HiBit KI) cell line
Assay type: cell-based
Conditions: 300 nM compound, luminescence after 9 hours
Method in brief: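 HeLa cells stably expressing LgBit, with HiBit knocked in at the C-terminus of endogenous Plk1, released from a 24 h 2 mM thymidine block and grown 18 h. Endurazine added, then compound at 300 nM; luminescence tracked in real time, expressed as ratio to DMSO.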

T1 sequence (P53350 whole entry): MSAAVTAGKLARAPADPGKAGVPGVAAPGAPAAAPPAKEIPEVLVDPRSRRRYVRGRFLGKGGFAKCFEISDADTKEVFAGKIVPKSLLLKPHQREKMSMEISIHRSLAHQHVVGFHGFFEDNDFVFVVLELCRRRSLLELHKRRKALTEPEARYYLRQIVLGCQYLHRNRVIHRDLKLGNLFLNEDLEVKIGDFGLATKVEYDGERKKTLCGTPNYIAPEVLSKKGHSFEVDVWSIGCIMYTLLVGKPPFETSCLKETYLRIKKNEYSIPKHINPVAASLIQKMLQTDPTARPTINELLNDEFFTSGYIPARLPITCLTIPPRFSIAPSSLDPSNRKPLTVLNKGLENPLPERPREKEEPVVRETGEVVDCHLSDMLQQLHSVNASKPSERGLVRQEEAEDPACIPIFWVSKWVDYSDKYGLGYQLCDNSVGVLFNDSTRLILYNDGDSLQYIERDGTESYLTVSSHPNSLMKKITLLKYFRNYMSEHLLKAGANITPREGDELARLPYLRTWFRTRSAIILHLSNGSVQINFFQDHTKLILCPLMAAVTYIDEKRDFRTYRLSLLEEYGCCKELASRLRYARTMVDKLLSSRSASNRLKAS

Row | Compound | Activity: ratio of the luminescense value of each Exemplary Compound treatment group to DMSO treatment group
1 | COc1cc(C(=O)NC2CCCC(N(C)C3CCN(c4cccc5c4C(=O)N(C4CCC(=O)NC4=O)C5=O)CC3)C2)ccc1Nc1ncc2c(n1)N(C(C)C)CC(F)(F)C(=O)N2C (stereo not drawn) [Compound 166, 4-((7,7-difluoro-9-isopropyl-5-methyl-6-oxo-6,7,8,9-tetrahydro-5H-pyrimido[4,5-b][1,4]diazepin-2-yl)amino)-N-(3-((1-(2-(2,6-dioxopiperidin-3-yl)-1,3-dioxoisoindolin-4-yl)piperidin-4-yl)(methyl)amino)cyclohexyl)-3-methoxybenzamide] | + (+<0.7)
2 | COc1cc(C(=O)NN2CCN(C3CCN(c4ccc5c(c4)C(=O)N(C4CCC(=O)NC4=O)C5=O)CC3(F)F)CC2)ccc1Nc1ncc2c(n1)N(C(C)C)CC(F)(F)C(=O)N2C (stereo not drawn) [Compound 168, 4-((7,7-difluoro-9-isopropyl-5-methyl-6-oxo-6,7,8,9-tetrahydro-5H-pyrimido[4,5-b][1,4]diazepin-2-yl)amino)-N-(4-(1-(2-(2,6-dioxopiperidin-3-yl)-1,3-dioxoisoindolin-5-yl)-3,3-difluoropiperidin-4-yl)piperazin-1-yl)-3-methoxybenzamide] | ++ (++<0.6)
3 | COc1cc(C(=O)NC2CCN(C(=O)CC[C@@H]3CN(Cc4cccc5c4C(=O)N(C4CCC(=O)NC4=O)C5=O)CCO3)CC2)ccc1Nc1ncc2c(n1)N(C1CCCC1)CC(F)(F)C(=O)N2C (stereo partly drawn) [Compound 173, 4-((9-cyclopentyl-7,7-difluoro-5-methyl-6-oxo-6,7,8,9-tetrahydro-5H-pyrimido[4,5-b][1,4]diazepin-2-yl)amino)-N-(1-(3-((2R)-4-((2-(2,6-dioxopiperidin-3-yl)-1,3-dioxoisoindolin-4-yl)methyl)morpholin-2-yl)propanoyl)piperidin-4-yl)-3-methoxybenzamide] | + (+<0.7)
4 | COc1cc(C(=O)NC2CCN(C(=O)CC[C@H]3CN(Cc4cccc5c4C(=O)N(C4CCC(=O)NC4=O)C5=O)CCO3)CC2)ccc1Nc1ncc2c(n1)N(C1CCCC1)CC(F)(F)C(=O)N2C (stereo partly drawn) [Compound 174, 4-((9-cyclopentyl-7,7-difluoro-5-methyl-6-oxo-6,7,8,9-tetrahydro-5H-pyrimido[4,5-b][1,4]diazepin-2-yl)amino)-N-(1-(3-((2S)-4-((2-(2,6-dioxopiperidin-3-yl)-1,3-dioxoisoindolin-4-yl)methyl)morpholin-2-yl)propanoyl)piperidin-4-yl)-3-methoxybenzamide] | ++ (++<0.6)
5 | COc1cc(C(=O)NC2CCN(C(=O)CCC#Cc3cccc4c3C(=O)N(C3CCC(=O)NC3=O)C4=O)CC2)ccc1Nc1ncc2c(n1)N(C1CCCC1)CC(F)(F)C(=O)N2C (stereo not drawn) [Compound 179, 4-((9-cyclopentyl-7,7-difluoro-5-methyl-6-oxo-6,7,8,9-tetrahydro-5H-pyrimido[4,5-b][1,4]diazepin-2-yl)amino)-N-(1-(5-(2-(2,6-dioxopiperidin-3-yl)-1,3-dioxoisoindolin-4-yl)pent-4-ynoyl)piperidin-4-yl)-3-methoxybenzamide] | ++ (++<0.6)
6 | COc1cc(C(=O)NC2CCN(C(=O)CCCC#Cc3cccc4c3C(=O)N(C3CCC(=O)NC3=O)C4=O)CC2)ccc1Nc1ncc2c(n1)N(C1CCCC1)CC(F)(F)C(=O)N2C (stereo not drawn) [Compound 180, 4-((9-cyclopentyl-7,7-difluoro-5-methyl-6-oxo-6,7,8,9-tetrahydro-5H-pyrimido[4,5-b][1,4]diazepin-2-yl)amino)-N-(1-(6-(2-(2,6-dioxopiperidin-3-yl)-1,3-dioxoisoindolin-4-yl)hex-5-ynoyl)piperidin-4-yl)-3-methoxybenzamide] | ++ (++<0.6)
7 | COc1cc(C(=O)N2CCN(CCCNc3cccc4c3C(=O)N(C3CCC(=O)NC3=O)C4=O)CC2)c(F)cc1Nc1ncc2c(n1)N(C1CCCC1)CC(F)(F)C(=O)N2C (stereo not drawn) [Compound 183, 4-((3-(4-(4-((9-cyclopentyl-7,7-difluoro-5-methyl-6-oxo-6,7,8,9-tetrahydro-5H-pyrimido[4,5-b][1,4]diazepin-2-yl)amino)-2-fluoro-5-methoxybenzoyl)piperazin-1-yl)propyl)amino)-2-(2,6-dioxopiperidin-3-yl)isoindoline-1,3-dione] | + (+<0.7)
8 | COc1cc(C(=O)N2CCN(CCCCNc3cccc4c3C(=O)N(C3CCC(=O)NC3=O)C4=O)CC2)c(F)cc1Nc1ncc2c(n1)N(C1CCCC1)CC(F)(F)C(=O)N2C (stereo not drawn) [Compound 184, 4-((4-(4-(4-((9-cyclopentyl-7,7-difluoro-5-methyl-6-oxo-6,7,8,9-tetrahydro-5H-pyrimido[4,5-b][1,4]diazepin-2-yl)amino)-2-fluoro-5-methoxybenzoyl)piperazin-1-yl)butyl)amino)-2-(2,6-dioxopiperidin-3-yl)isoindoline-1,3-dione] | + (+<0.7)
9 | COc1cc(C(=O)N2CCN(CCCNc3ccc4c(c3)C(=O)N(C3CCC(=O)NC3=O)C4=O)CC2)c(F)cc1Nc1ncc2c(n1)N(C1CCCC1)CC(F)(F)C(=O)N2C (stereo not drawn) [Compound 186, 5-((3-(4-(4-((9-cyclopentyl-7,7-difluoro-5-methyl-6-oxo-6,7,8,9-tetrahydro-5H-pyrimido[4,5-b][1,4]diazepin-2-yl)amino)-2-fluoro-5-methoxybenzoyl)piperazin-1-yl)propyl)amino)-2-(2,6-dioxopiperidin-3-yl)isoindoline-1,3-dione] | ++ (++<0.6)
10 | COc1cc(C(=O)N2CCN(CCCCNc3ccc4c(c3)C(=O)N(C3CCC(=O)NC3=O)C4=O)CC2)c(F)cc1Nc1ncc2c(n1)N(C1CCCC1)CC(F)(F)C(=O)N2C (stereo not drawn) [Compound 187, 5-((4-(4-(4-((9-cyclopentyl-7,7-difluoro-5-methyl-6-oxo-6,7,8,9-tetrahydro-5H-pyrimido[4,5-b][1,4]diazepin-2-yl)amino)-2-fluoro-5-methoxybenzoyl)piperazin-1-yl)butyl)amino)-2-(2,6-dioxopiperidin-3-yl)isoindoline-1,3-dione] | + (+<0.7)
11 | COc1cc(C(=O)N2CCC(N3CCN(CCOCCNc4cccc5c4C(=O)N(C4CCC(=O)NC4=O)C5=O)CC3)CC2)c(F)cc1Nc1ncc2c(n1)N(C1CCCC1)CC(F)(F)C(=O)N2C (stereo not drawn) [Compound 189, 4-((2-(2-(4-(1-(4-((9-cyclopentyl-7,7-difluoro-5-methyl-6-oxo-6,7,8,9-tetrahydro-5H-pyrimido[4,5-b][1,4]diazepin-2-yl)amino)-2-fluoro-5-methoxybenzoyl)piperidin-4-yl)piperazin-1-yl)ethoxy)ethyl)amino)-2-(2,6-dioxopiperidin-3-yl)isoindoline-1,3-dione] | ++ (++<0.6)
12 | COc1cc(C(=O)N2CCC(N3CCN(CCOCCNc4ccc5c(c4)C(=O)N(C4CCC(=O)NC4=O)C5=O)CC3)CC2)c(F)cc1Nc1ncc2c(n1)N(C1CCCC1)CC(F)(F)C(=O)N2C (stereo not drawn) [Compound 191, 5-((2-(2-(4-(1-(4-((9-cyclopentyl-7,7-difluoro-5-methyl-6-oxo-6,7,8,9-tetrahydro-5H-pyrimido[4,5-b][1,4]diazepin-2-yl)amino)-2-fluoro-5-methoxybenzoyl)piperidin-4-yl)piperazin-1-yl)ethoxy)ethyl)amino)-2-(2,6-dioxopiperidin-3-yl)isoindoline-1,3-dione] | ++ (++<0.6)
13 | COc1cc(C(=O)N2CCC(N3CCN(CCOCCCNc4ccc5c(c4)C(=O)N(C4CCC(=O)NC4=O)C5=O)CC3)CC2)c(F)cc1Nc1ncc2c(n1)N(C1CCCC1)CC(F)(F)C(=O)N2C (stereo not drawn) [Compound 192, 5-((3-(2-(4-(1-(4-((9-cyclopentyl-7,7-difluoro-5-methyl-6-oxo-6,7,8,9-tetrahydro-5H-pyrimido[4,5-b][1,4]diazepin-2-yl)amino)-2-fluoro-5-methoxybenzoyl)piperidin-4-yl)piperazin-1-yl)ethoxy)propyl)amino)-2-(2,6-dioxopiperidin-3-yl)isoindoline-1,3-dione] | ++ (++<0.6)
14 | COc1cc(C(=O)NC2CCC(N3CCN(CCOCCNc4ccc5c(c4)C(=O)N(C4CCC(=O)NC4=O)C5=O)CC3)CC2)c(F)cc1Nc1ncc2c(n1)N(C1CCCC1)CC(F)(F)C(=O)N2C (stereo not drawn) [Compound 193, 4-((9-cyclopentyl-7,7-difluoro-5-methyl-6-oxo-6,7,8,9-tetrahydro-5H-pyrimido[4,5-b][1,4]diazepin-2-yl)amino)-N-((1r,4r)-4-(4-(2-(2-((2-(2,6-dioxopiperidin-3-yl)-1,3-dioxoisoindolin-5-yl)amino)ethoxy)ethyl)piperazin-1-yl)cyclohexyl)-2-fluoro-5-methoxybenzamide] | ++ (++<0.6)
15 | COc1cc(C(=O)N[C@H]2CC[C@H](N3CCN(CCNc4cccc5c4C(=O)N(C4CCC(=O)NC4=O)C5=O)CC3)CC2)c(F)cc1Nc1ncc2c(n1)N(C1CCCC1)CC(F)(F)C(=O)N2C (stereo partly drawn) [Compound 196, 4-((9-cyclopentyl-7,7-difluoro-5-methyl-6-oxo-6,7,8,9-tetrahydro-5H-pyrimido[4,5-b][1,4]diazepin-2-yl)amino)-N-((1r,4r)-4-(4-(2-((2-(2,6-dioxopiperidin-3-yl)-1,3-dioxoisoindolin-4-yl)amino)ethyl)piperazin-1-yl)cyclohexyl)-2-fluoro-5-methoxybenzamide] | ++ (++<0.6)
